Measured values as given in patent publication US20240358693A1, “METHODS OF TREATING PAIN” (Aisa Pharma, Inc., priority 2023, published 2024).

Test system: participants with SSc-RP
Test: Average severity of weekly RP attacks (VAS 0-10 cm scale)
Format: in vivo, human
Source text: The absolute change in average severity of weekly RP attacks (VAS 0-10 cm scale) from baseline to the end of each Dosing Period was and will be a secondary outcome variable. The sponsor-developed participant-informed diary will be used to record data. Average severity of weekly RP attacks is defined as the total severity scores of RP attacks divided by total number of RP attacks within the last 7 days of each dosing period. Total severity scores of RP attacks during the last 7 days of screening period divided by the total number of RP attacks will be used as baseline for the analysis of all periods. The variable will be calculated similar to frequency data as before.

[1] = Pooled Cilnidipine 10 mg and Cilnidipine 10 mg + Tadalafil 5 mg, n=1, by Baseline RCS, second subgroup, ITT Population - Part A
[2] = Pooled Cilnidipine 10 mg and Cilnidipine 10 mg + Tadalafil 5 mg, n=2, by Baseline RCS, first subgroup, ITT Population - Part A
[3] = Pooled Cilnidipine 10 mg and Cilnidipine 10 mg + Tadalafil 5 mg, n=3, Excluding Outliers, ITT Population - Part A
[4] = Pooled Cilnidipine 10 mg and Cilnidipine 10 mg + Tadalafil 5 mg, n=3, ITT Population - Part A
[5] = Pooled Cilnidipine 10 mg and Cilnidipine 10 mg + Tadalafil 5 mg, Excluding Outliers, ITT Population - Part A
[6] = Pooled Cilnidipine 10 mg and Cilnidipine 10 mg + Tadalafil 5 mg, Excluding Outliers, by Baseline RCS, first subgroup, ITT Population - Part A
[7] = Pooled Cilnidipine 10 mg and Cilnidipine 10 mg + Tadalafil 5 mg, Excluding Outliers, by Baseline RCS, second subgroup, ITT Population - Part A
[8] = Pooled Cilnidipine 10 mg and Cilnidipine 10 mg + Tadalafil 5 mg, ITT Population - Part A
[9] = Pooled Cilnidipine 10 mg and Cilnidipine 10 mg + Tadalafil 5 mg, first Baseline RCS subgroup block (not named), ITT Part A
[10] = Pooled Cilnidipine 10 mg and Cilnidipine 10 mg + Tadalafil 5 mg, first Baseline RCS subgroup block (not named), ITT Part A, score 0-10
[11] = Pooled Cilnidipine 10 mg and Cilnidipine 10 mg + Tadalafil 5 mg, second Baseline RCS subgroup block (not named), ITT Part A
[12] = Pooled Cilnidipine 10 mg and Cilnidipine 10 mg + Tadalafil 5 mg, second Baseline RCS subgroup block (not named), ITT Part A, score 0-10
[13] = Pooled Cilnidipine 20 mg and Cilnidipine 20 mg + Tadalafil 5 mg, n=1, by Baseline RCS, second subgroup, ITT Population - Part A
[14] = Pooled Cilnidipine 20 mg and Cilnidipine 20 mg + Tadalafil 5 mg, n=3, by Baseline RCS, first subgroup, ITT Population - Part A

For `COCCOC(=O)C1=C(C)NC(C)=C(C(=O)OC/C=C/c2ccccc2)C1c1cccc([N+](=O)[O-])c1` (stereo not shown) [Cilnidipine, cilnidipine], the “Average Severity of Weekly RP Attacks (All Attacks), Percent Change from Baseline, Median” value (Pooled (over cilnidipine doses), ITT Population - Part A) was −7.69%, the “Average Severity (0-10) of Weekly Symptomatic RP Attacks, Mean” value [1] was 5.23 and the “Average Severity (0-10) of Weekly Symptomatic RP Attacks, Median” value [1] was 5.23. The “Average Severity of Weekly Symptomatic RP Attacks, Change from Baseline, Mean” value [1] was −1.13, the “Average Severity of Weekly Symptomatic RP Attacks, Change from Baseline, Median” value [1] was −1.13 and the “Average Severity of Weekly Symptomatic RP Attacks, Percent Change from Baseline, Mean” value [1] was −17.81%. For the same compound, the “Average Severity of Weekly Symptomatic RP Attacks, Percent Change from Baseline, Median” value [1] was −17.81%, the “Average Severity (0-10) of Weekly Symptomatic RP Attacks, Mean” value [2] was 3.34 and the “Average Severity (0-10) of Weekly Symptomatic RP Attacks, Median” value [2] was 3.34. For the same compound, the “Average Severity of Weekly Symptomatic RP Attacks, Change from Baseline, Mean” value [2] was −1.22, the “Average Severity of Weekly Symptomatic RP Attacks, Change from Baseline, Median” value [2] was −1.22 and the “Average Severity of Weekly Symptomatic RP Attacks, Percent Change from Baseline, Mean” value [2] was −20.18%. For the same compound, the “Average Severity of Weekly Symptomatic RP Attacks, Percent Change from Baseline, Median” value [2] was −20.18%, the “Average Severity (0-10) of Weekly Symptomatic RP Attacks, Mean” value [3] was 3.97 and the “Average Severity (0-10) of Weekly Symptomatic RP Attacks, Median” value [3] was 3.77. The “Average Severity of Weekly Symptomatic RP Attacks, Change from Baseline, Mean” value [3] was −1.19, the “Average Severity of Weekly Symptomatic RP Attacks, Change from Baseline, Median” value [3] was −1.13 and the “Average Severity of Weekly Symptomatic RP Attacks, Percent Change from Baseline, Mean” value [3] was −19.39%. For the same compound, the “Average Severity of Weekly Symptomatic RP Attacks, Percent Change from Baseline, Median” value [3] was −17.81%, the “Average Severity (0-10) of Weekly Symptomatic RP Attacks, Mean” value [4] was 3.97 and the “Average Severity (0-10) of Weekly Symptomatic RP Attacks, Median” value [4] was 3.77. The “Average Severity of Weekly Symptomatic RP Attacks, Change from Baseline, Mean” value [4] was −1.19, the “Average Severity of Weekly Symptomatic RP Attacks, Change from Baseline, Median” value [4] was −1.13 and the “Average Severity of Weekly Symptomatic RP Attacks, Percent Change from Baseline, Mean” value [4] was −19.39%. The “Average Severity of Weekly Symptomatic RP Attacks, Percent Change from Baseline, Median” value [4] was −17.81%, the “Average Severity of Weekly RP Attacks (All Attacks), Change from Baseline, Mean” value [5] was −1.34 and the “Average Severity of Weekly RP Attacks (All Attacks), Change from Baseline, Median” value [5] was −1.32. The “Average Severity of Weekly RP Attacks (All Attacks), Mean” value (“Average Severity … (All Attacks), Mean” for short) [5] was 3.62, the “Average Severity of Weekly RP Attacks (All Attacks), Median” value (“Average Severity … (All Attacks), Median” for short) [5] was 3.05 and the “Average Severity of Weekly RP Attacks (All Attacks), Percent Change from Baseline, Mean” value [5] was −23.02%. The “Average Severity of Weekly RP Attacks (All Attacks), Percent Change from Baseline, Median” value [5] was −21.20%, the “Average Severity of Weekly Symptomatic RP Attacks (Mean)” value [6] was 3.34 and the “Average Severity of Weekly Symptomatic RP Attacks (Median)” value [6] was 3.34. The “Average Severity of Weekly Symptomatic RP Attacks, Change from Baseline, Mean” value [6] was −1.22, the “Average Severity of Weekly Symptomatic RP Attacks, Change from Baseline, Median” value [6] was −1.22 and the “Average Severity of Weekly Symptomatic RP Attacks, Percent Change from Baseline, Mean” value [6] was −20.18%. The “Average Severity of Weekly Symptomatic RP Attacks, Percent Change from Baseline, Median” value [6] was −20.18%, the “Average Severity of Weekly Symptomatic RP Attacks (Mean)” value [7] was 5.23 and the “Average Severity of Weekly Symptomatic RP Attacks (Median)” value [7] was 5.23. The “Average Severity of Weekly Symptomatic RP Attacks, Change from Baseline, Mean” value [7] was −1.13, the “Average Severity of Weekly Symptomatic RP Attacks, Change from Baseline, Median” value [7] was −1.13 and the “Average Severity of Weekly Symptomatic RP Attacks, Percent Change from Baseline, Mean” value [7] was −17.81%. For the same compound, the “Average Severity of Weekly Symptomatic RP Attacks, Percent Change from Baseline, Median” value [7] was −17.81%, the “Average Severity of Weekly RP Attacks (All Attacks), Change from Baseline, Mean” value [8] was −1.34 and the “Average Severity of Weekly RP Attacks (All Attacks), Change from Baseline, Median” value [8] was −1.32. The “Average Severity … (All Attacks), Mean” value [8] was 3.62, the “Average Severity … (All Attacks), Median” value [8] was 3.05 and the “Average Severity of Weekly RP Attacks (All Attacks), Percent Change from Baseline, Mean” value [8] was −23.02%. The “Average Severity of Weekly RP Attacks (All Attacks), Percent Change from Baseline, Median” value [8] was −21.20%, the “Average Severity of Weekly RP Attacks (All Attacks), Percent Change from Baseline, Mean” value [9] was −23.94% and the “Average Severity of Weekly RP Attacks (All Attacks), Percent Change from Baseline, Median” value [9] was −23.94%. For the same compound, the “Average Severity of Weekly RP Attacks (All Attacks), Change from Baseline, Mean” value [10] was −1.35, the “Average Severity of Weekly RP Attacks (All Attacks), Change from Baseline, Median” value [10] was −1.35 and the “Average Severity … (All Attacks), Mean” value [10] was 2.97. For the same compound, the “Average Severity … (All Attacks), Median” value [10] was 2.97, the “Average Severity of Weekly RP Attacks (All Attacks), Percent Change from Baseline, Mean” value [11] was −21.20% and the “Average Severity of Weekly RP Attacks (All Attacks), Percent Change from Baseline, Median” value [11] was −21.20%. The “Average Severity of Weekly RP Attacks (All Attacks), Change from Baseline, Mean” value [12] was −1.32, the “Average Severity of Weekly RP Attacks (All Attacks), Change from Baseline, Median” value [12] was −1.32 and the “Average Severity … (All Attacks), Mean” value [12] was 4.90. The “Average Severity … (All Attacks), Median” value [12] was 4.90, the “Average Severity (0-10) of Weekly Symptomatic RP Attacks, Mean” value [13] was 5.06 and the “Average Severity (0-10) of Weekly Symptomatic RP Attacks, Median” value [13] was 5.06. For the same compound, the “Average Severity of Weekly Symptomatic RP Attacks, Change from Baseline, Mean” value [13] was −1.79, the “Average Severity of Weekly Symptomatic RP Attacks, Change from Baseline, Median” value [13] was −1.79 and the “Average Severity of Weekly Symptomatic RP Attacks, Percent Change from Baseline, Mean” value [13] was −26.14%. For the same compound, the “Average Severity of Weekly Symptomatic RP Attacks, Percent Change from Baseline, Median” value [13] was −26.14%, the “Average Severity (0-10) of Weekly Symptomatic RP Attacks, Mean” value [14] was 2.85 and the “Average Severity (0-10) of Weekly Symptomatic RP Attacks, Median” value [14] was 2.40. The “Average Severity of Weekly Symptomatic RP Attacks, Change from Baseline, Mean” value [14] was −1.06, the “Average Severity of Weekly Symptomatic RP Attacks, Change from Baseline, Median” value [14] was −0.33 and the “Average Severity of Weekly Symptomatic RP Attacks, Percent Change from Baseline, Mean” value [14] was −24.28%. For the same compound, the “Average Severity of Weekly Symptomatic RP Attacks, Percent Change from Baseline, Median” value [14] was −12.02%.
